# Assay results published in patent publication US6540792B1, “Cellulose fiber-containing structure” (priority 1999, dated 2003).
# Experiment: Inorganic value/organic value ratio calculated by the organic concept (Fujita)
# Details: concluded from the inorganic value/organic value ratio
# Excerpt: The “inorganic value/organic value ratio” in this invention is an indicator contrived by Minoru Fujita, to express the polarity of various organic compounds in view of organic concept [see Revised Edition, Science of Chemical Experiments, Organic Chemistry, Kawade shobo (1971)]. For the ratio, the organic value of one carbon (C) atom is decided as 20, and the inorganic and organic values of various polar groups are decided in reference to it, as shown in Table 1. The inorganic value/organic value ratio refers to the ratio of the sum of inorganic values to the sum of organic values.
# According to this organic concept, for example, the inorganic value/organic value ratio of polyethylene terephthalate can be calculated as 0.7. In this invention, attention is paid to the affinity between synthetic fibers and an antimicrobial agent based on the value calculated according to the organic concept, and an antimicrobial agent with the inorganic value/organic value ratio kept in a predetermined range is caused to adhere to or to be exhausted and diffused into the synthetic fibers.
# For example, in the case of 2,3,5,6-tetrachloro-4-hydroxypyridine, since it has one benzene nucleus, four —Cl groups, one —OH group and one —NR2 group, the inorganic value is 265. On the other hand, since it has five C (carbon) atoms and four —Cl groups, the organic value is 180. […]
smiles,measurement,value
[Na+].[O-][n+]1ccccc1[S-] [2-pyridylthiol-1-oxide sodium],affinity to polyesters,poor
